Assay results: US20250305004A1, “ENHANCING GENE TARGETING EFFICIENCY IN HUMAN CELLS WITH DNA-PK INHIBITOR TREATMENT” (The Board of Trustees of the Leland Stanford Junior …, priority 2022, published 2025)
Entries after “also recorded” stand apart in the source; their conditions may differ.

Assays:
[1] = tested on: LT-HSC and MPP populations; assay: Gene targeting at CCR5 locus in FACS sorted LT-HSC and MPP; assay type: cell-based, human; conditions: flow cytometry for GFP; 0.5 μM
[2] = tested on: CFTR locus in HBECs; assay: RNP/AAV6 gene targeting at CFTR locus in HBECs; assay type: cell-based, human; conditions: 0.5 μM
Experimental: (§1) ICE analysis for quantification of gene editing.
Cell culture and genome editing of HBECs. Human bronchial epithelial cells (HBECs) were obtained from Lonza Inc., the Primary Airway Cell Biobank at McGill University, the Cystic Fibrosis Foundation Cell Bank or the University of North Carolina. […] Cells were cultured at 37° C. in 5% 02 and 5% CO2.

[3] = tested on: T cells; assay: Viable cell count of CCR5 gene targeted T cells; assay type: cell-based, human
Experimental: (FIG. 34d). Next, we tested the effect of compound treatment when titrating down the AAV6 donor amounts for gene targeting at the CCR5 locus. […] For this, we assessed the CD19-CAR knock-in at the TRAC gene locus in T cells using a previously reported gene editing strategy^87 (FIG. 14c).
(§2) Cell viability measurement. MTT assay was used for measuring the gene edited PSC viability. […] After this incubation, MTT was removed, and cells were lysed using 100 μl of lysis buffer (0.1N HCl and 0.5% SDS in isopropanol). After lysis, absorbance was measured at 570 nm with 650 nm as the reference using a SpectraMax M3 plate reader (Molecular devices). The absorbance values were used to calculate the cell viability of gene edited cells as a percentage relative to the mock cells. […] Viable cell counts were represented as percentage relative to the mock or untreated cells as indicated.

[4] = tested on: HBB locus in HSPCs; assay: Editing of SCD mutation at HBB locus in HSPCs (AAV6 or ssODN donor); assay type: cell-based, human
Text: as §1
CD34+ HSPC culture and genome editing.

[5] = tested on: HSPCs; conditions: 72 h post-gene targeting at CCR5, HBA1 and HBB loci; 0.5 μM
Experimental: as §2

[6] = tested on: CCR5 locus in PSCs; assay: RNP/AAV6 gene targeting at CCR5 locus, knock-in of two stop codons, PSCs; assay type: cell-based, human; conditions: low activity gRNAs sg1 and sg4; 0.5 μM
Experimental: PSC culture and genome editing. […] For each nucleofection, RNP complex was prepared with 5 μg of Cas9 protein and 2 μg of gRNA and incubated for 15 mins at room temperature. PSCs were dissociated into single cells using Accutase (Innovative Cell Technologies, cat: AT104). […] Resuspended cells were added to one well of a 16-well Nucleocuvette Strip (Lonza) and nucleofection was performed in the 4D nucleofector (Lonza) using the program, CA137. Nucleofected PSCs were plated in mTeSR1 medium supplemented with 10 μM of Y27632 at a density of 100,000 cells per well in 48-well plate, AAV6 vector and DNA-PKcs inhibitors were added to the medium at indicated concentrations. […] From the following day, PSCs were cultured in mTeSR1 without Y27632. Gene targeting efficiency was analyzed at 4-6 days post-editing.
ICE analysis for quantification of gene editing. ICE CRISPR analysis tool (Synthego) was used to determine the allelic distribution of WT, INDEL and HDR frequencies for gene targeting involving knock-in of short sequences and for calculating the frequency of WT and INDEL alleles for gene targeting involving knock-in of multi-kb sequences. […] Following PCR, the amplicons were detected on agarose gel and purified from the gel using GeneJet Gel Extraction Kit (Thermo Fisher Scientific, cat: K0692). […]

[7] = tested on: CCR5 locus in B cells; assay: RNP/AAV6 gene targeting at CCR5 locus in B cells; assay type: cell-based, human; conditions: different concentrations (4, 2, 1, 0.5 and 0.1 μM); ddPCR
Experimental: B cell culture and genome editing. […] B cells were cultured at 37° C., 5% CO2, and ambient oxygen levels.
For genome editing, gRNA targeting CCR5 was complexed with Cas9 protein were complexed at a 2.5:1 ([…]) molar ratio at room temperature for 20 min. […] Cells were then replated at 1 million cells/ml in complete B cell activation media. […] Gene targeting was assessed at 3-days post-editing.

[8] = tested on: HBB locus in PSCs; assay: RNP/AAV6 gene targeting at HBB locus in PSCs; assay type: cell-based, human; conditions: UBC-GFP-bGHpA knock-in; 0.5 μM
Experimental: Gene targeting efficiency was measured by droplet digital PCR (ddPCR) and flow cytometry (for GFP) to measure the allelic targeting efficiency (FIG. 2B) and percentage of targeted cells (FIG. 2C) respectively. […] The treatment was carried out for 24 hours post gene targeting and the efficiency was calculated 1 week post gene targeting using ddPCR analysis.
First, we tested the treatment for editing the sickle cell disease (SCD) and cystic fibrosis (CF) mutations at HBB and CFTR loci respectively using the previously described Cas9 RNP and AAV6 donor reagents in WT PSC^71-73 (FIG. 19a-d).
PSC culture and genome editing. […] Gene targeting efficiency was analyzed at 4-6 days post-editing.
ddPCR analysis of targeted integration. Gene targeting efficiency for the knock-in of multi-kb sequences was measured through digital droplet PCR (ddPCR) analysis. […] After PCR, the droplets were analyzed using the QX200 Droplet Digital PCR reader (Biorad) and Quantasoft software was used to determine the number of copies of the target and reference DNA in the droplets. The allelic gene targeting efficiency was calculated as the percentage of target DNA copies relative to that of the reference. […]
ICE analysis for quantification of gene editing. […] Following PCR, the amplicons were detected on agarose gel and purified from the gel using GeneJet Gel Extraction Kit (Thermo Fisher Scientific, cat: K0692). […]

Structure (SMILES): Cc1cc2ncnn2cc1Nc1ncc2c(n1)n(C1CCOCC1)c(=O)n2C [AZD7648, 7-methyl-2-((7-methyl-[1,2,4]triazolo[l,5-a]pyridin-6-yl)amino)-9-(tetrahydro-2H-pyran-4-yl)-7,9-dihydro-8H-purin-8-one]
- improvement of frequency of gene targeted cells [1]: more than 2.5 fold
- alleles with INDELs vs untreated ([2]; CF patient derived HBECs): much lower frequency of alleles with INDELs
- improvement of frequency of gene targeted (GFP+) cells ([2]; exon 1 knock-in): around 2 fold
- viable cell count ([3]; 0.5 μM, different AAV6 MOIs): very little drop in viable cell count
- viable cell count vs mock and untreated controls ([3]; 72 h post-gene targeting, different concentrations): minimal drop in viable cell count
- INDELs after gene targeting ([4]; AAV6 donor, 0.5 μM): almost no INDELs; also recorded: nearly INDEL-free levels
- gene targeting frequency ([4]; ssODN donor […], AZD7648 0.5 μM, untreated 49%): 65%
- viable cell count vs mock cells [5]: only a small drop in viable cell count
- INDELs after gene targeting [6]: INDEL-free
- enhancement of gene targeting [7]: about 2 fold
- effect on gene targeting vs untreated [8]: enhanced the gene targeting significantly; also recorded: significant improvement
